Laboratory results reported in ChEMBL document CHEMBL2429821, “A Casein kinase 1/Checkpoint kinase 1 pyrazolo-pyridine protein kinase inhibitor as novel activator of the p53 pathway” (Bioorg Med Chem Lett, 2013).

Experiments:
A-375 [1] = assay: Cell cycle arrest in human A375 cells assessed as accumulation at S phase at 80 uM after 48 hrs by FACS flow cytometric analysis (reference value: 25.1%); type: functional
A-375 [2] = assay: Cell cycle arrest in human A375 cells assessed as accumulation at sub-G1 phase at 80 uM after 48 hrs by FACS flow cytometric analysis (reference value: 2.17%); type: functional
A-375 [3] = assay: Cell cycle arrest in human A375 cells assessed as accumulation at G0-G1 phase at 80 uM after 48 hrs by FACS flow cytometric analysis (reference value: 55.4%); type: functional
[4] = molecular target: Casein kinase I isoform delta (Rattus norvegicus, UniProt Q06486); assay: Inhibition of rat CK1delta in presence of 20 uM ATP
[5] = molecular target: Serine/threonine-protein kinase pim-2 (Homo sapiens) (UniProt Q9P1W9); assay: Inhibition of human PIM2 assessed as residual activity at 1 uM relative to control
[6] = molecular target: MAP kinase-activated protein kinase 2 (Homo sapiens) (UniProt P49137); assay: Inhibition of human MAPKAPK2 assessed as residual activity at 1 uM relative to control
[7] = molecular target: Aurora kinase B (Homo sapiens) (UniProt Q96GD4); assay: Inhibition of human Aurora-B assessed as residual activity at 1 uM relative to control
[8] = molecular target: T1, Mitogen-activated protein kinase 12 (Homo sapiens) (UniProt P53778); assay: Inhibition of human p38gamma MAPK assessed as residual activity at 10 uM relative to control
T1 sequence (whole entry): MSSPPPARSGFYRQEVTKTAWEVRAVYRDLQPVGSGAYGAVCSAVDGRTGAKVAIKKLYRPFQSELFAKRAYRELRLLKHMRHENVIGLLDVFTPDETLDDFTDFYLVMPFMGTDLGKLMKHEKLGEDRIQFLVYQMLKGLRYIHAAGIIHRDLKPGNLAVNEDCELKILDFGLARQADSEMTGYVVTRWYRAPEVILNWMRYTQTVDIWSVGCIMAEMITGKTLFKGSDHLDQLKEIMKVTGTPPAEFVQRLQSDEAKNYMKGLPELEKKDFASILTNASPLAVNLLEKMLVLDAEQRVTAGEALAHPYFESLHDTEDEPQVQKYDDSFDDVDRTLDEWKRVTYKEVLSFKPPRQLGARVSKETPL

[9] = molecular target: Insulin receptor (Homo sapiens) (UniProt P06213); assay: Inhibition of human IR assessed as residual activity at 10 uM relative to control
[10] = molecular target: T2, Eukaryotic elongation factor 2 kinase (Homo sapiens) (UniProt O00418); assay: Inhibition of human EF2K assessed as residual activity at 10 uM relative to control
T2 sequence (whole entry): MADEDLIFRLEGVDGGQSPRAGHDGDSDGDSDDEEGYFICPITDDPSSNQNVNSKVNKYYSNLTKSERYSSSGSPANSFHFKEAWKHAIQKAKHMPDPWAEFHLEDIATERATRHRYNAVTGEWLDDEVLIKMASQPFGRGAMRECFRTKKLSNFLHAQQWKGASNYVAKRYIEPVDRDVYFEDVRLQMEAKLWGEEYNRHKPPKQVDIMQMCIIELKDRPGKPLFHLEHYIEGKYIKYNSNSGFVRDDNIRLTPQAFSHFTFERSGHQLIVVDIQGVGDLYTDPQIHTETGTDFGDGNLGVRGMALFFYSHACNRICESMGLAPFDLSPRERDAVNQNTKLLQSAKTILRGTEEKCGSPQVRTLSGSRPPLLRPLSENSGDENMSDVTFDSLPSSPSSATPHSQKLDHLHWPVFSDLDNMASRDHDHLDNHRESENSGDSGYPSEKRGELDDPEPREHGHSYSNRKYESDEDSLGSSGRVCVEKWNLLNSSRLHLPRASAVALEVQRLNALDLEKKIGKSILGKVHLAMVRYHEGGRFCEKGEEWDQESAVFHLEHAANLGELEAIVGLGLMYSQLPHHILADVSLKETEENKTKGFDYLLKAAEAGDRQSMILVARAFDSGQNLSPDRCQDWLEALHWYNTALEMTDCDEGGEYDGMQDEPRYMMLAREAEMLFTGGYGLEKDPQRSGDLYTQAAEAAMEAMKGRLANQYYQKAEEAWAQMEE

[11] = molecular target: T3, Serine/threonine-protein kinase TBK1 (Homo sapiens) (UniProt Q9UHD2); assay: Inhibition of human TBK1 assessed as residual activity at 1 uM relative to control
T3 sequence (whole entry): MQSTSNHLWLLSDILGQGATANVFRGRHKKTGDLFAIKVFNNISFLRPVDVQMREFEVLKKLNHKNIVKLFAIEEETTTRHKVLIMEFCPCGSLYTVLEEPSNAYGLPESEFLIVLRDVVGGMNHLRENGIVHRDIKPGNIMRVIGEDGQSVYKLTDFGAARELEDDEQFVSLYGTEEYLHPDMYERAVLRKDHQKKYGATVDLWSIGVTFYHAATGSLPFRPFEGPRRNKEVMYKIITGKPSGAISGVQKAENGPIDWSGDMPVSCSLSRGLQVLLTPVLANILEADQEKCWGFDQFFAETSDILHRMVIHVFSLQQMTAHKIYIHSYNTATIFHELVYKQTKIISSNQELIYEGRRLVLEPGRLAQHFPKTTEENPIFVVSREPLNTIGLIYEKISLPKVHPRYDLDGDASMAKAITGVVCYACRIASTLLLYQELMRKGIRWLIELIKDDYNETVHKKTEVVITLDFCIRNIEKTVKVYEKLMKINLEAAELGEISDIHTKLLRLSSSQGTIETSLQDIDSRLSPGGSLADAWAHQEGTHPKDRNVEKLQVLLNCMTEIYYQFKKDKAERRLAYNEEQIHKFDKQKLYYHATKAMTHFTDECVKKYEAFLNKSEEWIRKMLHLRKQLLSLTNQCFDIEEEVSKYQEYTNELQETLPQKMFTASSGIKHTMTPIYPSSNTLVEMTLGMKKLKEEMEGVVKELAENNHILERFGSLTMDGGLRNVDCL

[12] = molecular target: Maternal embryonic leucine zipper kinase (Homo sapiens) (UniProt Q14680); assay: Inhibition of human MELK assessed as residual activity at 10 uM relative to control
[13] = molecular target: Serine/threonine-protein kinase Chk2 (Homo sapiens) (UniProt O96017); assay: Inhibition of human CHK2 assessed as residual activity at 10 uM relative to control
Serine/threonine-protein kinase Chk2 (Homo sapiens), sequence (O96017 whole entry): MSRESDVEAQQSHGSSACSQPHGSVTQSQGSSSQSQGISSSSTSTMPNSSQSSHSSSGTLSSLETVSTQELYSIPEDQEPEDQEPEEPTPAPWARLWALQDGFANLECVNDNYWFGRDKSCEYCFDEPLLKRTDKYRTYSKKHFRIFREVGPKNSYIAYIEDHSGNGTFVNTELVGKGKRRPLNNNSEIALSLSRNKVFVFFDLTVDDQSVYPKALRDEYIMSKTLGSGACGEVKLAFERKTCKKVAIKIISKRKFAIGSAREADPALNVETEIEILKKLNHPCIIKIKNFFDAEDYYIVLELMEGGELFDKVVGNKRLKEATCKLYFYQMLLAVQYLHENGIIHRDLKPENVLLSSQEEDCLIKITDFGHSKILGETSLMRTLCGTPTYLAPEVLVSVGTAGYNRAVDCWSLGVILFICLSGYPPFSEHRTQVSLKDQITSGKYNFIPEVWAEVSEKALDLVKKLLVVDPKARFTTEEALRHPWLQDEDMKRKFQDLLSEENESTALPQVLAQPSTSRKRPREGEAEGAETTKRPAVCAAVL

Insulin receptor (Homo sapiens), sequence (P06213 28-758 limits assumed): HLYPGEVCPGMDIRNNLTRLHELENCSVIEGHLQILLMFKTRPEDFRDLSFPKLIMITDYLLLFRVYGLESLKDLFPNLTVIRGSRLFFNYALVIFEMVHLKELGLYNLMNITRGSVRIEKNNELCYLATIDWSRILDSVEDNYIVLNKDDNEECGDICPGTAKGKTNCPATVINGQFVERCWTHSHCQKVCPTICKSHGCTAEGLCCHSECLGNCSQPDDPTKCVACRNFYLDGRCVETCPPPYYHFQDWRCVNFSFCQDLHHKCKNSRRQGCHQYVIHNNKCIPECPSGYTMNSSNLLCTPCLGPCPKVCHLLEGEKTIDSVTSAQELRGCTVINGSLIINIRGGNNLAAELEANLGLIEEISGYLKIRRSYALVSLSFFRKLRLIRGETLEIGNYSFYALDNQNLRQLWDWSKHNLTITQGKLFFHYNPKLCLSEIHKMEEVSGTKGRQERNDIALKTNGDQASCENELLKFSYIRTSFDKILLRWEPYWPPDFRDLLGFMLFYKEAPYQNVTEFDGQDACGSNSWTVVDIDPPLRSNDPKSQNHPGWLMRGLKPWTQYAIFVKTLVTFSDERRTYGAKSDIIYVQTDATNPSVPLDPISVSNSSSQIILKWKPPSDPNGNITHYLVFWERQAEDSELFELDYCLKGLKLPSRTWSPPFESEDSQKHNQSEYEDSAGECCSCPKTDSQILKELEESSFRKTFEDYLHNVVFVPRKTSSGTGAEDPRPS
Insulin receptor (Homo sapiens), sequence (P06213 763-1382 limits assumed): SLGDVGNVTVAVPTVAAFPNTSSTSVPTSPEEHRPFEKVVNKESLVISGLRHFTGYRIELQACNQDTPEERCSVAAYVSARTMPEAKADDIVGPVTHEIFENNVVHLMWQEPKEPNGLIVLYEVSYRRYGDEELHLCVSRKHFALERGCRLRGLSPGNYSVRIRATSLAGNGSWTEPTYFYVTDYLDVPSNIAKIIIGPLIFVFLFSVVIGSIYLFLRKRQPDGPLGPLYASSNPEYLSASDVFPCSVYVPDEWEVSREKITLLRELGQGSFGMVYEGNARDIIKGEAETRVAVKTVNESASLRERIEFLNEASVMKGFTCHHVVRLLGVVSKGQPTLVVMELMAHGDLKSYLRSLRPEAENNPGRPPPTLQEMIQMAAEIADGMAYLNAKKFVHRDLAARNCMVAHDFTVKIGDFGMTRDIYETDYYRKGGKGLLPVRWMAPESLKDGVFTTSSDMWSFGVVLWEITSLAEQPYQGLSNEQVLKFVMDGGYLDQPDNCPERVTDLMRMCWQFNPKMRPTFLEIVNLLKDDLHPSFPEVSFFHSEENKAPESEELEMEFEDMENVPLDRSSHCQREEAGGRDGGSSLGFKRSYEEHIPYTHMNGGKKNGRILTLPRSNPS
Aurora kinase B (Homo sapiens), sequence (Q96GD4 whole entry): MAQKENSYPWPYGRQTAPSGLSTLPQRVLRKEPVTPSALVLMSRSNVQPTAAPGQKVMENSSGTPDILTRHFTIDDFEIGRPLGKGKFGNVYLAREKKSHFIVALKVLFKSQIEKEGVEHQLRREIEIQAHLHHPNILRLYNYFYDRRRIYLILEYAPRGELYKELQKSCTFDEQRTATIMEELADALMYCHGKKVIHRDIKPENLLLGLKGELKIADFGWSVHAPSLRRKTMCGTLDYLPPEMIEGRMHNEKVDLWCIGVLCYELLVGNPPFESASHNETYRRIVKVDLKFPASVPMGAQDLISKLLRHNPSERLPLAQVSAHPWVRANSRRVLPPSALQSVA
Maternal embryonic leucine zipper kinase (Homo sapiens), sequence (Q14680 whole entry, looked up): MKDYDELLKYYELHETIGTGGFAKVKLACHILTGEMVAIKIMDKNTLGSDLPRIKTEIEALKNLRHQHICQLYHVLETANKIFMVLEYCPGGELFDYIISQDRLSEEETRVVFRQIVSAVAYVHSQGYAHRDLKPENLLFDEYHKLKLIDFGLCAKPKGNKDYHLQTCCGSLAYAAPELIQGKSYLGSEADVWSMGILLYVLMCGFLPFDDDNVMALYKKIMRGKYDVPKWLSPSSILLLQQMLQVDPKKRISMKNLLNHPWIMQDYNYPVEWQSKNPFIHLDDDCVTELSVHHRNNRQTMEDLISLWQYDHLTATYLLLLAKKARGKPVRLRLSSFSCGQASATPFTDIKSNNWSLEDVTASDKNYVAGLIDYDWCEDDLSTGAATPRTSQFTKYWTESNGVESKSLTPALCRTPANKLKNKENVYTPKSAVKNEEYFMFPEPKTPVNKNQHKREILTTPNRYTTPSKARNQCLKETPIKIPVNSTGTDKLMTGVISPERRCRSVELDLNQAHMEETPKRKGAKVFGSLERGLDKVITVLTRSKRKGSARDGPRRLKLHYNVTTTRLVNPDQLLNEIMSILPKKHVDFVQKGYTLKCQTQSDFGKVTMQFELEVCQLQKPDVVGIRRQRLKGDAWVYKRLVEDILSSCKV
Casein kinase I isoform delta, sequence (Q06486 whole entry, canonical isoform): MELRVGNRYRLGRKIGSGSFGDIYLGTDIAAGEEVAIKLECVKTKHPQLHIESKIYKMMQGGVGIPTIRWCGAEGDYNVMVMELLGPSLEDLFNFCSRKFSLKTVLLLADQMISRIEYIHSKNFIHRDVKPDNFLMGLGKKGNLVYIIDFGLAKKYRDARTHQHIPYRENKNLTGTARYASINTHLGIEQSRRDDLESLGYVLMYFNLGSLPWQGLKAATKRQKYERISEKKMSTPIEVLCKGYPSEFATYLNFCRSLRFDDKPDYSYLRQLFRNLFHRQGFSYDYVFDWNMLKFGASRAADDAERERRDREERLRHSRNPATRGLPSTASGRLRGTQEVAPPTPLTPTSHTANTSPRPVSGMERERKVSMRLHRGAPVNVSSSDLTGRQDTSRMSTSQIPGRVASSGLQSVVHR
MAP kinase-activated protein kinase 2 (Homo sapiens), sequence (P49137 whole entry, looked up): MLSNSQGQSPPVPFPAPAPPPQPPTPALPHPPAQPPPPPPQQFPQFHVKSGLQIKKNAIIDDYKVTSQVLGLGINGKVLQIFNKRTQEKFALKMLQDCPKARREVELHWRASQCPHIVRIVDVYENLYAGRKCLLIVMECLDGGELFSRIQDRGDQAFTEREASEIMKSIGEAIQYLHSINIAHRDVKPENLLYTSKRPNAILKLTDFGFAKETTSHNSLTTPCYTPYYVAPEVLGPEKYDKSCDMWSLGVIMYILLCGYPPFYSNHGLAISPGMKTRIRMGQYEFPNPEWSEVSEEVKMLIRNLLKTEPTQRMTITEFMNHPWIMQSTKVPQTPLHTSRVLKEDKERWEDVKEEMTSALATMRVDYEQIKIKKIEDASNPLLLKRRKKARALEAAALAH
Serine/threonine-protein kinase pim-2 (Homo sapiens), sequence (Q9P1W9 whole entry, looked up): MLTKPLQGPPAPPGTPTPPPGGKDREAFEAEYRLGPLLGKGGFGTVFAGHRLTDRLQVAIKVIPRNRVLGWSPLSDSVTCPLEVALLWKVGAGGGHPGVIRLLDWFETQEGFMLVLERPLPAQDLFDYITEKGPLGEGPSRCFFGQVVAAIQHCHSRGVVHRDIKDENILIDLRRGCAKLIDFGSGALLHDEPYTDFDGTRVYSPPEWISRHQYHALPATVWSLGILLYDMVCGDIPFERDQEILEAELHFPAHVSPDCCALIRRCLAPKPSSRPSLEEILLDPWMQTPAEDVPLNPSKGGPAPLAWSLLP

Row | IC50 [4] [nM] | Activity [5] [%] | Activity [6] [%] | Activity [7] [%] | Activity [8] [%] | Activity [9] [%] | Activity [10] [%] | Activity [11] [%] | Activity [12] [%] | Activity [13] [%] | Compound | Activity (A-375 [1]) [%] | Activity (A-375 [2]) [%] | Activity (A-375 [3]) [%]
1 | 838 | 119 | 94.7 | 93.5 | 93 | 100 | 83 | 106 | 106 | 78.8 | CC(=O)Nc1nccc(-c2c(-c3ccccc3)noc2C)n1 | 21.9 | 3.32 | 58.5
2 | – | – | – | 102 | – | 101 | 95 | 91 | 64 | 96 | CCCC(=O)Nc1n[nH]c2ncc(-c3cccnc3)cc12 | – | – | –
3 | 893 | 79 | 63.8 | 77.2 | 95.6 | 94.9 | 106 | 88.9 | 38.9 | 28.9 | CC(=O)Nc1cccc(-c2cnc3[nH]nc(C)c3c2)c1 | 11.6 | 45.7 | 5.36
